The results in this text go back to ChEMBL document CHEMBL5120855, “Potent 2,3-dihydrophthalazine-1,4-dione derivatives as dual inhibitors for mono-ADP-ribosyltransferases PARP10 and PARP15” (Eur J Med Chem, 2022).

The target in test [1] is T1, Protein mono-ADP-ribosyltransferase PARP15 (Homo sapiens, UniProt Q460N3).
T1 sequence (Q460N3 whole entry): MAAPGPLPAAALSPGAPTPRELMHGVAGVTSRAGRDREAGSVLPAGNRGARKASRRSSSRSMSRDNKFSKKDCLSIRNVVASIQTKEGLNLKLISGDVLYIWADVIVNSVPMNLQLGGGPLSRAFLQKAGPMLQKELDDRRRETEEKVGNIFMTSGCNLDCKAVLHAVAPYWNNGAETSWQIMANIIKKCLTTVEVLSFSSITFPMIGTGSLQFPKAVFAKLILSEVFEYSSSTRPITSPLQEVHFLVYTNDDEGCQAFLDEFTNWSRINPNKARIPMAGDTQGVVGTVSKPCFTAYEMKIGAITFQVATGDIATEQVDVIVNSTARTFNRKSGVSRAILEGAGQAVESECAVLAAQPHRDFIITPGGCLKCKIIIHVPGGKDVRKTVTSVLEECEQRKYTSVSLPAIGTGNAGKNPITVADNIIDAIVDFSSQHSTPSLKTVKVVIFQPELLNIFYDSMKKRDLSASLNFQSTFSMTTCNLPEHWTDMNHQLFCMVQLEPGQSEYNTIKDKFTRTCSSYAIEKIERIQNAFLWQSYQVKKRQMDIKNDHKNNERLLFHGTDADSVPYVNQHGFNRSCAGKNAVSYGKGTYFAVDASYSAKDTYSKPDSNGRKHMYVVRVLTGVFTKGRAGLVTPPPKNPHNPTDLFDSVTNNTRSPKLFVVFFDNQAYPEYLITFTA
Nature of the test: Inhibition of human N-terminal 6His-tagged PARP15 (460 to 656 residues) expressed in Escherichia coli Rosetta2 (DE3) cells using NAD+ as substrate incubated for 10 mins by fluorescence based analysis.

The target in test [2] is Poly [ADP-ribose] polymerase 2 (Homo sapiens, UniProt Q9UGN5). Briefly: Inhibition of human PARP2 using NAD+ as substrate incubated for 10 mins by fluorescence based analysis.
Sequence of Poly [ADP-ribose] polymerase 2 (Q9UGN5 whole entry): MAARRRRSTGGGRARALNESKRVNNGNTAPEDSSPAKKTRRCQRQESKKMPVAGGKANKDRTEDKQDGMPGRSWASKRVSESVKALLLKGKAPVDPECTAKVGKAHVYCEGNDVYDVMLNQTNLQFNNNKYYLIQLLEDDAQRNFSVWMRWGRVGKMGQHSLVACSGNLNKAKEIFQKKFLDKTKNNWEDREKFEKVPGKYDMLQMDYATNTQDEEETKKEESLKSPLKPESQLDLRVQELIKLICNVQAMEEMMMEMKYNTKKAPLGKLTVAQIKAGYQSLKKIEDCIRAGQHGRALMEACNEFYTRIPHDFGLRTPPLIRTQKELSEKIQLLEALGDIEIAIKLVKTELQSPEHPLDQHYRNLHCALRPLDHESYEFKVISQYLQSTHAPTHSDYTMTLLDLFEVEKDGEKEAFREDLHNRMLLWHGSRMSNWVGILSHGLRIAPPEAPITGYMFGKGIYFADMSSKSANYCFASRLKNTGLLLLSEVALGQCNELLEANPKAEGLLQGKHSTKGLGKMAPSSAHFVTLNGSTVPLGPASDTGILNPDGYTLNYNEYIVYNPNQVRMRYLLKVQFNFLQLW
For test [3], the target named is T2, Protein mono-ADP-ribosyltransferase PARP3 (Homo sapiens, UniProt Q9Y6F1).
T2 sequence (Q9Y6F1 whole entry): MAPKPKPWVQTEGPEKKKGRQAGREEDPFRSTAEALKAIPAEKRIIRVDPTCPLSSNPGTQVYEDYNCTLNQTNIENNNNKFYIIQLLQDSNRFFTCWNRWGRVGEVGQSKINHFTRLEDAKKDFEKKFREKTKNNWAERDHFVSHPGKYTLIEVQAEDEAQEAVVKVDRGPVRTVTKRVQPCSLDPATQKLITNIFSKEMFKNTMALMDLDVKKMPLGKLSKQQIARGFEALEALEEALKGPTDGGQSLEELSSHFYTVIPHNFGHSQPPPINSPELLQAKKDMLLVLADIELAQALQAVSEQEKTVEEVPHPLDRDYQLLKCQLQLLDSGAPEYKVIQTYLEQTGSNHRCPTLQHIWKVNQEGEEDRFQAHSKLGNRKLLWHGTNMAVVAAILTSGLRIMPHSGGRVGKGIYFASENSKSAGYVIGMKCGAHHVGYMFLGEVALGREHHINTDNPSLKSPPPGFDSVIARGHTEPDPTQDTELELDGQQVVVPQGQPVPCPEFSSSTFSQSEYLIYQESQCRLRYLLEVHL
Briefly: Inhibition of human PARP3.

Test [4] has as its target T3, Protein mono-ADP-ribosyltransferase PARP12 (Homo sapiens, UniProt Q9H0J9).
T3 sequence (Q9H0J9 whole entry): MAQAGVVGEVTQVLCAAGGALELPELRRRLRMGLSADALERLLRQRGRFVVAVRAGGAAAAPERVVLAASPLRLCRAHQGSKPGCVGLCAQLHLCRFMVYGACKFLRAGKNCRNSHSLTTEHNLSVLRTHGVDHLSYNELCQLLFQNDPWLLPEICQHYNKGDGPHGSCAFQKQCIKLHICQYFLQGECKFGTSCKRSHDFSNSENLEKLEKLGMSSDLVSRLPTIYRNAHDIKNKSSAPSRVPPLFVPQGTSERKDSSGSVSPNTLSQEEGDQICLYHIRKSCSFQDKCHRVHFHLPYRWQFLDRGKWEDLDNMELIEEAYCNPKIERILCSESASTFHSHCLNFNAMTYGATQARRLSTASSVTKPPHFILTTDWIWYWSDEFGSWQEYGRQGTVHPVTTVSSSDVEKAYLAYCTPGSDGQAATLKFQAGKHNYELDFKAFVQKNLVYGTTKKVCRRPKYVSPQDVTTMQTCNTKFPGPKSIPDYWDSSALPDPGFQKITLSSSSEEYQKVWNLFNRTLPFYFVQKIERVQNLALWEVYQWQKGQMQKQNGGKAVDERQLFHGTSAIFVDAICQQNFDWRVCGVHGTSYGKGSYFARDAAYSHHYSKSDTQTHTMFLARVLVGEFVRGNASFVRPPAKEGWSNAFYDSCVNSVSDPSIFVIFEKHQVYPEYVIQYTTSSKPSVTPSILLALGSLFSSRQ
Nature of the test: Inhibition of human PARP12.

Test [5] has as its system HeLa. Nature of the test: Rescue of cell viability in human HeLa cells expressing wild type PARP10 at upto 10 uM incubated for 10 to 12 days by methylene blue dye based colony formation assay. It counts as functional.

In the case of `NC(=O)c1ccc(OCC2CCC2)cc1`, the concentration for half-maximal inhibition (IC50) in test [1] was 2.4 µM; in test [2] it was 38 µM; in test [3], greater than 100 µM; in test [4], greater than 10 µM. The EC50 in test [5] was 0.59 µM.
